According to paper PMC7887336, “Altered functional properties of the codling moth Orco mutagenized in the intracellular loop-3” (Scientific Reports, 2021):
Changes are numbered by the printed parent chain. Like-named read-outs stand apart in the source and are kept apart here.

What was measured:
CpomOrco^Q417H+OR3 = molecular target: T1, CpomOrco^Q417H+OR3 (Cydia pomonella, UniProt H9A5M3); test: Calcium imaging of HEK293T cells co-expressing CpomOrco^Q417H and CpomOR3, pear ester stimulation; format: cell-based
T1 construct: variant as stated: Q417H
T1 sequence (H9A5M3 1-426): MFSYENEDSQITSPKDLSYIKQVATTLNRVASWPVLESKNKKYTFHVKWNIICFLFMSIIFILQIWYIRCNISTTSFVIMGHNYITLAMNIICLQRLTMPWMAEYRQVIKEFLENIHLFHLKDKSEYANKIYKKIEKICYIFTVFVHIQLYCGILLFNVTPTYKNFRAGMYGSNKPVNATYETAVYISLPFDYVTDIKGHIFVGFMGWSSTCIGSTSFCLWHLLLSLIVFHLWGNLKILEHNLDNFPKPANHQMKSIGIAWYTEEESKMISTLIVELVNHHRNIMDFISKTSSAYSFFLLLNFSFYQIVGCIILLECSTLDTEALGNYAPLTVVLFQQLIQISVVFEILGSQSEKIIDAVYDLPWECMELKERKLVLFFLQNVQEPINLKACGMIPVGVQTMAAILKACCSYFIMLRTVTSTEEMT
T1 sequence (H9A5M2 1-473 Q417H partner): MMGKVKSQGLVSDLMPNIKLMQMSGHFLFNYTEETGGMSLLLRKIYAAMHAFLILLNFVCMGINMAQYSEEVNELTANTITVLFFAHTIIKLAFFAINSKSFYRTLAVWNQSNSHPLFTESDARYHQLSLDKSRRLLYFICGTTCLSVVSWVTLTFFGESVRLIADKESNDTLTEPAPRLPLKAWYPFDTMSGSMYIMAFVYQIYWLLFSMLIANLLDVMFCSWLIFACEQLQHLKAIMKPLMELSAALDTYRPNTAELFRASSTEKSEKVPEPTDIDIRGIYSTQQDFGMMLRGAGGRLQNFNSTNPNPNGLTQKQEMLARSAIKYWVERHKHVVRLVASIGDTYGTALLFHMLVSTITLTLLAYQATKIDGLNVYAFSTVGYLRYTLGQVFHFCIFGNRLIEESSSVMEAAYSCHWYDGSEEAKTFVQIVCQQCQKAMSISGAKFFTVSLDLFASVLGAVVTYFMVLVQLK
Procedure: (§1) HEK293 cells lines (HEK293A/HEK293T) were grown in HEK cell media [Dulbecco's modified Eagle's medium containing 10% fetal bovine serum (MP Biomedicals, Solon, OH, USA), 2.0 mM L-glutamine, and 100 µg/mL penicillin/streptomycin (Invitrogen)] at 37 °C and 5% CO2. To test transient expression of wild type CpomOrco and CpomOrco^Q417H variant for calcium imaging and patch-clamp recording, 35-mm petri dishes containing semi-confluent HEK293A cells were transiently transfected. Cells were transfected with 0.6 µg of pcDNA40-DEST carrying the coding sequence of the CpomOrco variant (depending on the experiments). To report expression for calcium imaging experiments, 0.6 µg of a separate plasmid DNA [pEBFP2-Nuc, a gift from Robert Campbell (Addgene plasmid # 1489352)] carrying the coding sequence for a blue fluorescent protein (EBFP) was co-transfected. To report expression in patch-clamp recordings, 1.0 µg of a separate plasmid DNA (pXOOM, Clontech, Mountain View, CA, USA) carrying the coding sequence for a green fluorescent protein (GFP) was co-transfected. Expressions of fluorescent reporter genes were under the regulation of the same promoter for Cpom-genes (CMV). For specific experiments, co-transfections were conducted combining an additional 1.2 µg of pcDNA40-DEST/CpomOR3 or pcDNA40-DEST/CpomOR6a, as we previously described. Co-transfections with CpomOR3 were performed for dose–response experiments to pear ester: CpomOR3 was co-expressed with CpomOrco variants by the use of HEK293T (Fig. 3b); given the reported functional co-expression data of the CpomOrco + OR3 heteromers by the use of these specific cells. In brief, transfection DNAs were dissolved in 100 µL sterile DMEM, mixed with 3.0 µL Calfectin (SignaGen, Rockville, MD, USA) following the recommended protocol. Transfections were conducted overnight for up to 18 h, HEK cell media was replaced with 2.0 mL fresh media to incubate cells at 37 °C for up to 6–8 h, at which point part of the cell culture was spread in the middle of a 35-mm plate as individual cells or small clusters and rinsed at the sides with 2.0 mL fresh HEK media. After splitting, cells were allowed to recover for at least 1 day prior to calcium imaging. […]
(§2) Fluorescence imaging was performed using settings optimized for Imaging Workbench 6 software (INDEC BioSystems, Santa Clara, CA, USA)[14]. […] Each cell was assigned a region of interest (ROI) and changes in fluorescence intensity within each ROI were measured and expressed as the fractional change in fluorescence intensity (dF). Stored time series image stacks were analysed off-line using Imaging Workbench 6, Clampfit 10.5 (Molecular Devices) and SigmaPlot 11 (Systat Software Inc., San Jose, CA, USA). […]

CpomOrco+OR3 = molecular target: T2, CpomOrco+OR3 (Cydia pomonella, UniProt H9A5M3); test: Calcium imaging of HEK293T cells co-expressing CpomOrco and CpomOR3, pear ester stimulation; format: cell-based
T2 sequence (H9A5M3 1-426): T1 sequence (H9A5M3 1-426)
T2 sequence (H9A5M2 1-473 partner): T1 sequence (H9A5M2 1-473 Q417H partner) with H417Q
Procedure: as §1, §2

CCCCC/C=C\C=C\C(=O)OCC [pear ester, ethyl (E,Z)-2,4 decadienoate]
Hill coefficient (cooperativity coefficient h) (CpomOrco^Q417H+OR3): ~ 4.6 | EC50 (CpomOrco^Q417H+OR3; Hill fit): ~733 µM | maximum response (Hill fit of calcium response amplitudes) (CpomOrco^Q417H+OR3; N = 262 cells): ~3.7 ± 0.1 ∆F | Hill coefficient (cooperativity coefficient h) (CpomOrco^Q417H+OR3; listed as Pear ester): ~ 4.6 ± 0.4 | Hill coefficient (cooperativity coefficient h) (CpomOrco+OR3): ~ 4.6 | EC50 (CpomOrco+OR3; Hill fit): ~210 µM | maximum response (Hill fit of calcium response amplitudes) (CpomOrco+OR3; N = 160 cells): ~ 6.6 ± 0.3 ∆F | Hill coefficient (cooperativity coefficient h) (CpomOrco+OR3; listed as Pear ester): ~ 4.6 ± 2.4
